Paper PMC10765884, “MC180295 is a highly potent and selective CDK9 inhibitor with preclinical in vitro and in vivo efficacy in cancer” (Clinical Epigenetics, 2024)

Legend:
[1] = system: THP-1; assay: Growth inhibition (cell counting, day 5); type: cell-based; details: Homo sapiens, Leukemia
Protocol: (§1) The live-cell assay for GFP reactivation in YB5 cells was done as previously described. Cells were treated with a single dose of drug 24 h after seeding at low density, and GFP fluorescence measured in a Millipore Guava flow cytometer (EMD, Millipore) instrument, or by imaging in a Cytation instrument (Agilent). Cancer cell lines (listed in Additional file 1: Fig. S1A) were obtained from ATCC or the Temple/Fox Chase Cellular Repository and cultured in the recommended medium. To measure growth inhibition, cells were seeded in 96-well plates at 40% confluency. Fresh medium was changed the next day and drugs were added directly. Drug-free fresh medium was changed on the fourth day. The cells were collected on day 5 by trypsin, suspended in medium, mixed with trypan blue (Thermo Fisher Scientific) (1:1 ratio), and counted using a LUNA II automated cell counter. Each sample was counted at least three times, and average numbers used for the analysis. Each treatment condition was performed in biological triplicates.

[2] = system: A375; assay: Growth inhibition (cell counting, day 5); type: cell-based; details: Homo sapiens, A-375; Melanoma
Protocol: as §1

[3] = system: MCF7; assay: Growth inhibition (cell counting, day 5); type: cell-based; details: Homo sapiens, Breast
Protocol: as §1

[4] = system: SKBR3; assay: Growth inhibition (cell counting, day 5); type: cell-based; details: Homo sapiens, SK-BR-3; Breast
Protocol: as §1

[5] = Drug toxicity: body weights and complete blood counts in tumor-bearing mice; type: in vivo; details: MV4-11 model, NSG mice, Fig. S4D
[6] = system: HT29 cells; assay: HT29 colon cancer xenograft in NSG mice; type: in vivo; details: HT29 s.c. in NSG mice, 20 mg/kg i.p. q.o.d.
Protocol: Fig. 3 Antitumor, survival, and metabolic effects of MC180295 and its enantiomers, MC180379 and MC180380. A Antitumor effects of MC180295, MC180379, and MC180380. NSG mice were inoculated (s.c.) with 2 × 10^6 SW48 cells. Eleven days later, when tumors were palpable, 20 mg/kg MC180295, MC180379, MC180380, or vehicle were administered (i.p.) every other day (q.o.d.). Tumor sizes were measured using a caliper. […] C Antitumor effects of MC180379 and MC180380. NSG mice were inoculated (s.c.) with 1 × 10^6 HT29 cells. Twelve days later, when tumors were palpable, 20 mg/kg MC180379, MC180380, or vehicle were administered (i.p.) q.o.d. Tumor sizes were measured using a caliper. D HT29-xenografted mouse survival following (i.p.) q.o.d. dosing with 20 mg/kg MC180379 or MC180380. E NSG mice were inoculated (i.p.) with 5 × 10^5 MV4-11-luc cells. Four days later, when substantial tumor burden was evident by bioluminescence imaging, MC180379, MC180380, or vehicle were administered (i.p.) q.o.d at 20 mg/kg. Luciferase expression was quantified and calculated. F Mouse survival in days. […] G In vitro liver microsome stability and rat hepatocyte/Sprague–Dawley stability assay comparing MC180379 to MC180380. The dog breed was beagle and the mouse microsome strain was CD-1. […] Significances were calculated using log-rank (Mantel-Cox) or Student’s t tests. […]

Compound	IC50 [1]	IC50 [2]	IC50 [3]	IC50 [4]	body weights [5]	survival [6]
Nc1nc(N[C@H]2C[C@@H]3CC[C@H]2C3)sc1C(=O)c1ccccc1[N+](=O)[O-] (relative stereo) [MC180295]	43 nM	189 nM	177 nM	122 nM	did not affect NSG mouse body weights	
Nc1nc(N[C@H]2C[C@@H]3CC[C@H]2C3)sc1C(=O)c1ccccc1[N+](=O)[O-] [MC180380]						extending survival longer than MC180379
